In patent US20100063047A1 (KALYPSYS, INC., priority 2008, published 2010):

Experiments:
[1] = molecular target: T1, human H1 (Homo sapiens, UniProt P35367); assay: In vitro histamine H1 receptor cell-based aequorin bioluminescence antagonist assay; settings: CHO-K1 cells expressing human H1 and aequorin; histamine at EC80; read-out: H1 Antagonist EC50
T1 construct: host or cells: CHO-K1, also expressing mitochondrion-targeted aequorin
Outline: (§1)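 CHO-K1 cells stably expressing human H1 or H4 plus mitochondrial aequorin (H4 also with Gα16), loaded with 5 μM coelenterazine-h for 4 h at ~21 °C. Compounds preincubated 15 min at room temperature, then histamine at EC80 added.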

[2] = tested on: tissue eosinophil peroxidase (EPO); assay: Allergic conjunctivitis in passively sensitized guinea pigs, conjunctival EPO activity; format: in vivo; set-up: key: a test compound was assigned a “+” if a ≦0.1% qd dose was statistically equivalent to dexamethasone with respect to reduction of EPO activity; a “−” was assigned if the compound was statistically inferior to dexamethasone and not different than vehicle; settings: ≦0.1% qd topical dose (1 hour prior to challenge); reduction of conjunctival EPO activity 24 h after ovalbumin challenge, compared with 0.1% w/v dexamethasone; guinea pig
Experimental: (§2) Allergic Conjunctivitis in Passively Sensitized Guinea Pigs
Male Hartley VAF outbred guinea pigs were passively sensitized to ovalbumin by a single OD subconjunctival injection of undiluted guinea pig anti-ovalbumin antiserum 24 hours before OD topical challenge with 500 μg ovalbumin in saline. Control animals were injected with saline only and challenged with ovalbumin. To determine acute phase drug efficacy, 30 min after challenge animals were clinically scored by a masked observer for severity of signs of conjunctivitis based on a standard scale. Test compounds were administered topically 1 hour prior to challenge (QD protocol), or 1 hour prior to challenge and again 8 hours after challenge (BID protocol). […] EPO activity in supernatants was measured by reacting diluted homogenates with a solution of 6 mM o-phenylenediamine substrate and 8.8 mM H2O2 in homogenization buffer for 3 min. The reaction was stopped with 4M H2SO4 and absorbances were measured at 490 nm on a spectrophotometric plate reader. Total EPO in samples was calculated from a standard curve of recombinant human EPO in each assay. […] Background EPO activity was determined from the unsensitized, antigen-challenged control group. Percent inhibition was calculated from the sensitized, antigen-challenged, vehicle-treated control group in each experiment. […]

[3] = molecular target: T2, human H4 (Homo sapiens, UniProt Q9H3N8); assay: In vitro histamine H4 receptor cell-based aequorin bioluminescence antagonist assay; settings: CHO-K1 cells expressing human H4, aequorin and Gα16; histamine at EC80
T2 construct: host or cells: CHO-K1, also expressing mitochondrion-targeted aequorin and human Gα16
Outline: as §1

[4] = tested on: tissue eosinophil peroxidase (EPO); assay: Allergic conjunctivitis in passively sensitized guinea pigs, conjunctival EPO activity; format: in vivo; set-up: key: a test compound was assigned a “+” if a 0.01% bid dose was statistically equivalent to dexamethasone with respect to reduction of EPO activity; a “−” was assigned if the compound was statistically inferior to dexamethasone and not different than vehicle; settings: reduction of conjunctival EPO activity 24 h after ovalbumin challenge, compared with 0.1% w/v dexamethasone, guinea pig; for BID activity: 0.01% bid topical dose (1 hour prior to and 8 hours after challenge); for QD activity: ≦0.1% qd topical dose (1 hour prior to challenge)
Experimental: as §2
Male Hartley VAF outbred guinea pigs were passively sensitized to ovalbumin by a single OD subconjunctival injection of undiluted guinea pig anti-ovalbumin antiserum 24 hours before OD topical challenge with 500 μg ovalbumin in saline. Control animals were injected with saline only and challenged with ovalbumin. To determine acute phase drug efficacy, 30 min after challenge animals were clinically scored by a masked observer for severity of signs of conjunctivitis based on a standard scale. Test compounds were administered topically 1 hour prior to challenge (QD protocol), or 1 hour prior to challenge and again 8 hours after challenge (BID protocol). Twenty-four hours after challenge, animals were euthanized and conjunctivae were harvested for determination of tissue eosinophil peroxidase (EPO) concentration as a marker of allergic inflammation. Homogenates of freshly collected tissues were prepared by shaking the tissues in 2 mL round-bottom tubes containing 0.5 mL of homogenization buffer (50 mM Tris HCl, pH 8.0, 6 mM KBr) and one 5-mm stainless steel bead on a Qiagen TissueLyser at 30 Hz for 5 min. Homogenates were frozen and thawed once, then centrifuged at 10,000 rpm for 5 min. EPO activity in supernatants was measured by reacting diluted homogenates with a solution of 6 mM o-phenylenediamine substrate and 8.8 mM H2O2 in homogenization buffer for 3 min. The reaction was stopped with 4M H2SO4 and absorbances were measured at 490 nm on a spectrophotometric plate reader. Total EPO in samples was calculated from a standard curve of recombinant human EPO in each assay. EPO activity was normalized to total protein concentration (Pierce BCA assay) in supernatants. Background EPO activity was determined from the unsensitized, antigen-challenged control group. Percent inhibition was calculated from the sensitized, antigen-challenged, vehicle-treated control group in each experiment. Ovalbumin-injected animals dosed topically with 0.1% w/v dexamethasone (dex) served as positive control. Groups were compared by ANOVA with Dunnett's or Tukey's post-hoc tests where appropriate with significance assigned at the 95% confidence level.
The table below summarizes the results.

T1 sequence (P35367 whole entry): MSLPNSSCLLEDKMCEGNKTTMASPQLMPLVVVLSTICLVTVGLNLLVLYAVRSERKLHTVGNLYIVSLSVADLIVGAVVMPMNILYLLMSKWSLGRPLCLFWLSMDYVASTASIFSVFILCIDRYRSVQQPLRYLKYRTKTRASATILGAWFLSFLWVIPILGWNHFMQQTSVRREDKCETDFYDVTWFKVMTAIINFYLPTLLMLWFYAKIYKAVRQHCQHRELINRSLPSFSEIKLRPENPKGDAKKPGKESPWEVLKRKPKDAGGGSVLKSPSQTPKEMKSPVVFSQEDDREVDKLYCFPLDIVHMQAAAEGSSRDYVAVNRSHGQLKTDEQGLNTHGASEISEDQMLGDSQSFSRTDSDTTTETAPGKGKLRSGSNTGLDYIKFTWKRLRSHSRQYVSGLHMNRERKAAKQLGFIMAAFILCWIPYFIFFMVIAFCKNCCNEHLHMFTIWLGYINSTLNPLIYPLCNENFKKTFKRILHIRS

| EC50 [1] | EC50 [3] | Compound | QD activity [2] | BID activity [4] | QD activity [4] |
| --- | --- | --- | --- | --- | --- |
| > 10 µM |  | Cc1csc2ncnc(NC3Cc4ccccc4C3)c12 [Example 29, N-(2,3-dihydro-1H-inden-2-yl)-5-methylthieno[2,3-d]pyrimidin-4-amine] | + |  |  |
| > 10 µM |  | Cc1sc2ncnc(NCCc3ccccc3Cl)c2c1C [Example 43, N-[2-(2-chlorophenyl)ethyl]-5,6-dimethylthieno[2,3-d]pyrimidin-4-amine] |  | − |  |
| > 10 µM |  | Clc1ccc(CCNc2ncnc3sccc23)cc1 [Example 45, N-[2-(4-chlorophenyl)ethyl]thieno[2,3-d]pyrimidin-4-amine] |  | + | − |
| > 10 µM | > 10 µM | Cc1csc2ncnc(N3CCC(O)(O)CC3)c12 [Example 228, 1-{5-methylthieno[2,3-d]pyrimidin-4-yl}piperidine-4,4-diol] |  |  |  |

More lines, now with the values behind:

| Compound | EC50 [1] | EC50 [3] | QD activity [2] | BID activity [4] | QD activity [4] |
| --- | --- | --- | --- | --- | --- |
| Cc1csc2ncnc(NCc3ccccn3)c12 [Example 85, 5-methyl-N-(pyridin-2-ylmethyl)thieno[2,3-d]pyrimidin-4-amine] | > 10 µM | > 10 µM | + |  |  |
| Clc1ccc(CCNc2nccc3sccc23)cc1 [Example 27, N-(4-chlorophenethyl)thieno[3,2-c]pyridin-4-amine] | > 10 µM | > 10 µM |  | + | − |
| Cc1csc2ncnc(N3CCC[C@@H]3CO)c12 [Example 194, [(2R)-1-{5-methylthieno[2,3-d]pyrimidin-4-yl}pyrrolidin-2-yl]methanol] | > 10 µM | > 10 µM |  |  |  |
| CCN(CC)CCN(Cc1ccccc1)c1ncnc2scc(C)c12 [Example 272, N-benzyl-N-[2-(diethylamino)ethyl]-5-methylthieno[2,3-d]pyrimidin-4-amine] | > 10 µM | > 10 µM |  |  |  |
| Cc1csc2ncnc(NCC#N)c12 [Example 52, 2-({5-methylthieno[2,3-d]pyrimidin-4-yl}amino)acetonitrile] | > 10 µM | > 10 µM |  |  |  |
